Experimental data as given in US10987322B2, “Immunoregulatory agents” (FLEXUS BIOSCIENCES, INC., priority 2014, dated 2021).

Target: IDO (Homo sapiens, UniProt P14902)
Assay: IDO enzyme activity assay
Type: biochemical
Conditions: read-out: Potency: IDO IC50
Method: An IDO enzyme assay and cellular production of kynurenine (KYN) is described in Sarkar, S. A. et al., Diabetes 56:72-79 (2007). Briefly, all chemicals can be purchased from Sigma-Aldrich (St. Louis, Mo.) unless specified otherwise. Groups of 1,000 human islets can be cultured for 24 h in 1 mL medium with cytokines, recovered by centrifugation for 5 min at 800×g and sonicated in 150 μL PBS containing a protease inhibitor cocktail (Set 2; Calbiochem, EMD Biosciences, San Diego, Calif.). The sonicate can be centrifuged for 10 min at 10,000×g, and the supernatant can be assayed in triplicate by incubating a 40 μl sample with an equal volume of 100 mmol/L potassium phosphate buffer, pH 6.5, containing 40 mmol/L ascorbic acid (neutralized to pH 7.0), 100 μmol/L methylene blue, 200 μg/mL catalase, and 400 μmol/l L-Trp for 30 min at 37° C. The assay can be terminated by the addition of 16 μL 30% (w/v) trichloroacetic acid (TCA) and further incubated at 60° C. for 15 min to hydrolyze N-formylkynurenine to KYN. The mixture can then be centrifuged at 12,000 rpm for 15 min, and KYN can be quantified by mixing equal volume of supernatant with 2% (w/v) Ehrlich's reagent in glacial acetic acid in 96-well microtiter plate and reading the absorbance at 480 nm using L-KYN as standard. Protein in the islet samples can be quantified by Bio-Rad Protein assay at 595 nm. For the detection of L-KYN in the islet culture supernatants, proteins can be precipitated with 5% (w/v) TCA and centrifuged at 12,000 rpm for 15 min, and determination of KYN in the supernatant with Ehrlich's reagent can be determined as described above. IL-4 ([…]; 500-2,000 units/mL) and 1-α-methyl Trp (1-MT; 40 μmol/L) can be added to the incubation media as indicated. This assay can also form the basis of a cell-based assay, and may be quantified via LCMS/MS as an alternative to UV/Vis detection.
cDNA clones for both human and mouse IDO have been isolated and verified by sequencing and are commercially available. In order to prepare IDO for biochemical studies, C-terminal His-tagged IDO protein can be produced in E. coli using the IPTG-inducible pET5a vector system and isolated over a nickel column. The yield of the partially purified protein can be verified by gel electrophoresis and the concentration estimated by comparison to protein standards. To assay IDO enzymatic activity, a 96-well plate spectraphotometric assay for kynurenine production can be run following published procedures (see, e.g., Littlejohn, T. K., et al. (2000) Prot. Exp. Purif. 19:22-29). To screen for IDO inhibitory activity, compounds can be evaluated at a single concentration of, for example, 200 μM against 50 ng of IDO enzyme in 100 μL reaction volumes with tryptophan added at increasing concentrations at, for example, 0, 2, 20, and 200 μM. Kynurenine production can be measured at 1 hour.

Chain of IDO (P14902 whole entry): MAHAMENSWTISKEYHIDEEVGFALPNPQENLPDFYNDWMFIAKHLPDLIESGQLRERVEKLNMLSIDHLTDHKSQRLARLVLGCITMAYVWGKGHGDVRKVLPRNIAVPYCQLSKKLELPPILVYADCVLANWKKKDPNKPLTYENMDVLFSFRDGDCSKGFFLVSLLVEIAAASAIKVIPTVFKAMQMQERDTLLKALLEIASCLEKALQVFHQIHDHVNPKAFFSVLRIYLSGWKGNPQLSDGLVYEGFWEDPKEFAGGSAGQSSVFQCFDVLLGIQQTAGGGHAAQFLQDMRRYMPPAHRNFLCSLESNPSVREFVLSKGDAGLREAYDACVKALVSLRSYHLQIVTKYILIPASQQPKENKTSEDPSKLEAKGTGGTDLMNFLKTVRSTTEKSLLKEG

| Compound | IC50 [µM] |
| --- | --- |
| CCCC/C(=N/O)Nc1cccc(Cl)c1 | < 1 |
| O/N=C(/CCC1CCCC1)Nc1cccc(Cl)c1 | < 1 |
| OCCCC/C(=N/O)Nc1cccc(Cl)c1 | < 10 |
| O/N=C(/CC(O)C1CCCCC1)Nc1cc(F)cc(Cl)c1 (stereo not drawn) | < 100 |
| O/N=C(/CC1CCCC1)Nc1cccc(Cl)c1 | < 1 |
| CC(C)CC/C(=N/O)Nc1cccc(Cl)c1 | < 1 |
| O/N=C(/CC(O)C1CCCCC1)Nc1ccc(Cl)c(F)c1 (stereo not drawn) | < 100 |
| O/N=C(/CC(O)C1CCCCC1)Nc1cccc(Cl)c1 (stereo not drawn) | < 10 |
| O/N=C(/CC1CCCO1)Nc1cccc(Cl)c1 (stereo not drawn) | < 10 |
| O/N=C(/CCC1CCCCC1)Nc1cccc(Cl)c1 | < 1 |

Continued, values first:

| IC50 [µM] | Compound |
| --- | --- |
| < 1 | CCCCC/C(=N/O)Nc1cccc(Cl)c1 |
| < 1 | O/N=C(/CC1CCCCC1)Nc1cccc(Cl)c1 |
| < 100 | O/N=C(/CC(O)C1CCCCC1)Nc1cccc(C(F)(F)F)c1 (stereo not drawn) |
| < 10 | O/N=C(/CC(O)C1CCCCC1)Nc1cc(Cl)cc(Cl)c1 (stereo not drawn) |
| < 100 | O/N=C(/CC(O)C1CCCCC1)Nc1ccc(F)c(F)c1 (stereo not drawn) |
| < 1 | O/N=C(/CC1CC1)Nc1cccc(Cl)c1 |
| < 100 | O/N=C(/CC(O)C1CCCCC1)Nc1cccc(F)c1 (stereo not drawn) |
| < 1 | CCCCCC/C(=N/O)Nc1cccc(Cl)c1 |
| < 10 | O/N=C(\Nc1cccc(Cl)c1)C1CCCC1 |
| < 1 | CC(C)C/C(=N/O)Nc1cccc(Cl)c1 |
| < 100 | CC(C)(C)C/C(=N/O)Nc1cccc(Cl)c1 |
| < 10 | O/N=C(/CC1CCCC1O)Nc1cccc(Cl)c1 (stereo not drawn) |
| < 1 | CCC/C(=N/O)Nc1cccc(Cl)c1 |
| < 10 | CC/C(=N/O)Nc1cccc(Cl)c1 |
